ChEMBL document CHEMBL4376898, “Enhanced Activity against Multidrug-Resistant Bacteria through Coapplication of an Analogue of Tachyplesin I and an Inhibitor of the QseC/B Signaling Pathway” (J Med Chem, 2020)
In brackets after ≈: the same amount, converted by molar mass.

What was measured:
Type in all cases: functional
[1] = system: Klebsiella pneumoniae; assay: Antimicrobial activity against Klebsiella pneumoniae BAA 2470 assessed as inhibition of visible growth incubated for 18 hrs; settings: BAA 2470, 18 h
[2] = Antimicrobial activity against Lysobacter enzymogenes YC36 assessed as inhibition of visible growth measured after 7th generation exposure to compound by continuous repeated transfer assay (reference value: 8 ug/ml)
[3] = system: Pseudomonas aeruginosa; assay: Bactericidal activity against Pseudomonas aeruginosa ATCC 27853
[4] = system: Pseudomonas aeruginosa; assay: Antimicrobial activity against Pseudomonas aeruginosa BAA 2108 assessed as inhibition of visible growth incubated for 18 hrs; settings: BAA 2108, 18 h
[5] = system: Staphylococcus aureus; assay: Antimicrobial activity against Staphylococcus aureus BAA 44 assessed as inhibition of visible growth incubated for 18 hrs; settings: BAA 44, 18 h
[6] = system: Escherichia coli; assay: Bactericidal activity against Escherichia coli K-12
[7] = system: Escherichia coli; assay: Antimicrobial activity against Escherichia coli K-12 assessed as inhibition of visible growth incubated for 18 hrs; settings: K-12, 18 h
[8] = system: Staphylococcus aureus; assay: Antimicrobial activity against Staphylococcus aureus ATCC 29213 assessed as inhibition of visible growth incubated for 18 hrs; settings: ATCC 29213, 18 h
[9] = system: Enterobacter cloacae; assay: Antimicrobial activity against Enterobacter cloacae BAA 1143 assessed as inhibition of visible growth incubated for 18 hrs; settings: BAA 1143, 18 h
[10] = system: Bacillus subtilis; assay: Antimicrobial activity against Bacillus subtilis 168 assessed as inhibition of visible growth incubated for 18 hrs; settings: Bacillus subtilis, 168, 18 h
[11] = system: Bacillus subtilis; assay: Bactericidal activity against Bacillus subtilis 168
[12] = system: Staphylococcus aureus; assay: Antimicrobial activity against Staphylococcus aureus BAA 41 assessed as inhibition of visible growth incubated for 18 hrs; settings: BAA 41, 18 h
[13] = Bactericidal activity against Lysobacter enzymogenes YC36
[14] = system: Acinetobacter baumannii; assay: Antimicrobial activity against Acinetobacter baumannii ATCC 19606 assessed as inhibition of visible growth incubated for 18 hrs; settings: ATCC 19606 = CIP 70.34 = JCM 6841, 18 h
[15] = system: Acinetobacter baumannii; assay: Bactericidal activity against Acinetobacter baumannii ATCC 19606; settings: ATCC 19606 = CIP 70.34 = JCM 6841
[16] = system: Staphylococcus aureus; assay: Bactericidal activity against Staphylococcus aureus ATCC 29213
[17] = system: Shigella flexneri; assay: Bactericidal activity against Shigella flexneri ATCC 29903
[18] = Antimicrobial activity against Lysobacter enzymogenes YC36 assessed as inhibition of visible growth measured after 7th generation exposure to compound by continuous repeated transfer assay relative to before passage
[19] = system: Escherichia coli; assay: Antimicrobial activity against Escherichia coli BAA 2469 assessed as inhibition of visible growth incubated for 18 hrs; settings: BAA 2469, 18 h
[20] = Antimicrobial activity against Lysobacter enzymogenes YC36 assessed as inhibition of visible growth measured after 7th generation exposure to compound by continuous repeated transfer assay (reference value: 4 ug/ml)
[21] = system: Klebsiella pneumoniae; assay: Antimicrobial activity against Klebsiella pneumoniae BAA 1144 assessed as inhibition of visible growth incubated for 18 hrs; settings: BAA 1144, 18 h
[22] = system: Escherichia coli; assay: Antimicrobial activity against Escherichia coli ATCC 25923 assessed as inhibition of visible growth incubated for 18 hrs; settings: ATCC 25923, 18 h
[23] = system: Enterococcus faecium; assay: Bactericidal activity against Enterococcus […] ATCC 29212
[24] = system: Pseudomonas aeruginosa; assay: Antimicrobial activity against Pseudomonas aeruginosa ATCC 27853 assessed as inhibition of visible growth incubated for 18 hrs; settings: ATCC 27853, 18 h
[25] = Bactericidal activity against Lysobacter enzymogenes YC36 with delta qseB mutant assessed as killing of bacterial cells at 2 ug/ml relative to control
[26] = Bactericidal activity against Lysobacter enzymogenes YC36 with delta qseC mutant assessed as killing of bacterial cells at 2 ug/ml relative to control
[27] = system: Enterococcus faecium; assay: Antimicrobial activity against Enterococcus […] ATCC 29212 assessed as inhibition of visible growth incubated for 18 hrs; settings: ATCC 29212, 18 h

**Q.** What does the source list for `CC[C@@H](C)[C@H]1NC(=O)CNC(=O)[C@@H](CCCNC(=N)N)NC(=O)[C@@H](Cc2ccc(O)cc2)NC(=O)[C@H]2CSSC[C@@H](NC1=O)C(=O)N[C@H](Cc1ccc(O)cc1)C(=O)N[C@H](CCCNC(=N)N)C(=O)N[C@H](CCCNC(=N)N)C(=O)N[C@@H](C(=O)N[C@H](CCCNC(=N)N)C(N)=O)CSSC[C@@H](NC(=O)[C@@H](Cc1c[nH]c3ccccc13)NC(=O)[C@H](N)CCCCN)C(=O)N[C@H](Cc1ccccc1)C(=O)N[C@H](CCCNC(=N)N)C(=O)N[C@H](C(C)C)C(=O)N2`?
**A.** MIC [1]: 16 µg/mL (≈ 7.07 µM); MIC [2]: 16 µg/mL (≈ 7.07 µM); MBC [3]: 16 to 64 µg/mL (≈ 7.07 to 28.3 µM); MIC [4]: 8 µg/mL (≈ 3.53 µM); MIC [5]: 4 µg/mL (≈ 1.77 µM); MBC [6]: 16 to 64 µg/mL (≈ 7.07 to 28.3 µM); MIC [7]: 8 µg/mL (≈ 3.53 µM); MIC [8]: 8 µg/mL (≈ 3.53 µM); MIC [9]: 8 µg/mL (≈ 3.53 µM); MIC [10]: 4 µg/mL (≈ 1.77 µM); MBC [11]: 16 to 64 µg/mL (≈ 7.07 to 28.3 µM); MIC [12]: 4 µg/mL (≈ 1.77 µM); MBC [13]: 16 to 64 µg/mL (≈ 7.07 to 28.3 µM); MIC [14]: 8 µg/mL (≈ 3.53 µM); MBC [15]: 16 to 64 µg/mL (≈ 7.07 to 28.3 µM); MBC [16]: 16 to 64 µg/mL (≈ 7.07 to 28.3 µM); MBC [17]: 16 to 64 µg/mL (≈ 7.07 to 28.3 µM); fold change (FC) [18]: 4; MIC [19]: 8 µg/mL (≈ 3.53 µM); MIC [20]: 16 µg/mL (≈ 7.07 µM); MIC [21]: 16 µg/mL (≈ 7.07 µM); MIC [22]: 8 µg/mL (≈ 3.53 µM); MBC [23]: 16 to 64 µg/mL (≈ 7.07 to 28.3 µM); MIC [24]: 8 to 16 µg/mL (≈ 3.53 to 7.07 µM); Activity [25]: <=100%; Activity [26]: <=100%; MIC [27]: 4 µg/mL (≈ 1.77 µM)
